Source: the NIST ThermoML archive (doi:10.1021/acs.jced.5b00943)

Details: Liquid, Ebulliometric method (Recirculating still)

C=CC(C)C#N (centres undefined) [2-methyl-3-butenenitrile]
Details | vapor or sublimation pressure [kPa]
297.57 K | 2.701
304.35 K | 3.664
309.86 K | 4.608
315.95 K | 6.064
318.68 K | 6.731
321.34 K | 7.521
324.85 K | 8.987
327.15 K | 9.9
331.76 K | 11.75
335.25 K | 13.48
339.53 K | 15.75
343.65 K | 18.68
352.65 K | 25.35
356.05 K | 29.21
359.56 K | 33.21
364.85 K | 38.55
369.25 K | 44.68
373.25 K | 50.01
376.09 K | 55.48
379.75 K | 62.68
382.83 K | 68.94
387.65 K | 79.23
391.95 K | 90.16
394.25 K | 95.76
